Laboratory results published in the supplement of paper PMC10627819.

Key:
Assay in all cases: fitness (endpoint OD595 vs no drug) (fraction); higher = more growth
B. subtilis 168 = tested on: B. subtilis 168
Procedure, shortened: (§1)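 Bacterial fitness was scored as optical density at the stationary-phase transition relative to the robust mean of no-drug control wells. Scores are capped at 1. The growth data were OD595 readings every 30 min for 14 h at 37 °C, background-subtracted against the first reading, from 384-well plates inoculated at OD595 0.01 in TSB, LB Lennox or CY.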

S. pneumoniae D39V = tested on: S. pneumoniae D39V
Procedure, shortened: as §1

S. aureus Newman = tested on: S. aureus Newman
Procedure, shortened: as §1
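Note: OD595 on entry to stationary phase over no-drug wells; at most 1.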

CN(C)[C@@H]1C(O)=C(C(N)=O)C(=O)[C@@]2(O)C(O)=C3C(=O)c4c(O)ccc(Cl)c4[C@@](C)(O)[C@H]3C[C@@H]12 [Chlortetracycline] + CN(C)c1cc(NC(=O)CNC(C)(C)C)c(O)c2c1C[C@H]1C[C@H]3[C@H](N(C)C)C(O)=C(C(N)=O)C(=O)[C@@]3(O)C(O)=C1C2=O [Tigecycline]
Settings	fitness
B. subtilis 168, first compound 0.0475 µg/mL, partner 0.039 µg/mL	0.924
B. subtilis 168, first compound 0.0475 µg/mL, partner 0.078 µg/mL	0.873
B. subtilis 168, first compound 0.0475 µg/mL, partner 0.156 µg/mL	0.823
B. subtilis 168, first compound 0.095 µg/mL, partner 0.039 µg/mL	0.828
B. subtilis 168, first compound 0.095 µg/mL, partner 0.078 µg/mL	0.781
B. subtilis 168, first compound 0.095 µg/mL, partner 0.156 µg/mL	0.784
B. subtilis 168, first compound 0.19 µg/mL, partner 0.039 µg/mL	0.651
B. subtilis 168, first compound 0.19 µg/mL, partner 0.078 µg/mL	0.605
B. subtilis 168, first compound 0.19 µg/mL, partner 0.156 µg/mL	0.5
S. pneumoniae D39V, first compound 0.012 µg/mL, partner 0.65 µg/mL	0.943
S. pneumoniae D39V, first compound 0.012 µg/mL, partner 1.3 µg/mL	0.98
S. pneumoniae D39V, first compound 0.012 µg/mL, partner 2.6 µg/mL	0.866
S. pneumoniae D39V, first compound 0.024 µg/mL, partner 0.65 µg/mL	0.949
S. pneumoniae D39V, first compound 0.024 µg/mL, partner 1.3 µg/mL	0.909
S. pneumoniae D39V, first compound 0.024 µg/mL, partner 2.6 µg/mL	0.862
S. pneumoniae D39V, first compound 0.048 µg/mL, partner 0.65 µg/mL	0.867
S. pneumoniae D39V, first compound 0.048 µg/mL, partner 1.3 µg/mL	0.814
S. pneumoniae D39V, first compound 0.048 µg/mL, partner 2.6 µg/mL	0.815
S. pneumoniae D39V, first compound 0.375 µg/mL, partner 0.325 µg/mL	0.0315
S. pneumoniae D39V, first compound 0.375 µg/mL, partner 0.65 µg/mL	0.0403
S. pneumoniae D39V, first compound 0.375 µg/mL, partner 1.3 µg/mL	0.0368
S. pneumoniae D39V, first compound 0.75 µg/mL, partner 0.325 µg/mL	0.0625
S. pneumoniae D39V, first compound 0.75 µg/mL, partner 0.65 µg/mL	0.0555
S. pneumoniae D39V, first compound 0.75 µg/mL, partner 1.3 µg/mL	0.0691
S. pneumoniae D39V, first compound 1.5 µg/mL, partner 0.325 µg/mL	0.0404
S. pneumoniae D39V, first compound 1.5 µg/mL, partner 0.65 µg/mL	0.0304
S. pneumoniae D39V, first compound 1.5 µg/mL, partner 1.3 µg/mL	0.0788

fitness, B. subtilis 168, one replicate
Settings	first compound 0.0475 µg/mL	first compound 0.095 µg/mL	first compound 0.19 µg/mL
partner 0.125 µg/mL	0.996	0.974	0.827
partner 0.25 µg/mL	0.915	0.874	0.763
partner 0.5 µg/mL	0.933	0.879	0.84

CN(C)[C@@H]1C(O)=C(C(N)=O)C(=O)[C@@]2(O)C(O)=C3C(=O)c4c(O)ccc(Cl)c4[C@@](C)(O)[C@H]3C[C@@H]12 [Chlortetracycline] + CN(C)C(=O)C(CCN1CCC(O)(c2ccc(Cl)cc2)CC1)(c1ccccc1)c1ccccc1 [Loperamide]
Settings	fitness
B. subtilis 168, first compound 0.0475 µg/mL, partner 50 µg/mL	0.0353
B. subtilis 168, first compound 0.0475 µg/mL, partner 100 µg/mL	0.0088
B. subtilis 168, first compound 0.095 µg/mL, partner 25 µg/mL	0.0158
B. subtilis 168, first compound 0.095 µg/mL, partner 50 µg/mL	0.0367
B. subtilis 168, first compound 0.095 µg/mL, partner 100 µg/mL	0.0243
B. subtilis 168, first compound 0.19 µg/mL, partner 25 µg/mL	0.0386
B. subtilis 168, first compound 0.19 µg/mL, partner 50 µg/mL	0.05
B. subtilis 168, first compound 0.19 µg/mL, partner 100 µg/mL	0.0328
S. pneumoniae D39V, first compound 0.012 µg/mL, partner 17.14 µg/mL	0.967
S. pneumoniae D39V, first compound 0.012 µg/mL, partner 34.28 µg/mL	0.899
S. pneumoniae D39V, first compound 0.024 µg/mL, partner 17.14 µg/mL	0.926
S. pneumoniae D39V, first compound 0.024 µg/mL, partner 34.28 µg/mL	0.909
S. pneumoniae D39V, first compound 0.048 µg/mL, partner 17.14 µg/mL	0.829
S. pneumoniae D39V, first compound 0.048 µg/mL, partner 34.28 µg/mL	0.844
S. pneumoniae D39V, first compound 0.375 µg/mL, partner 20 µg/mL	0.0446
S. pneumoniae D39V, first compound 0.375 µg/mL, partner 40 µg/mL	0.0664
S. pneumoniae D39V, first compound 0.375 µg/mL, partner 80 µg/mL	0.065
S. pneumoniae D39V, first compound 0.75 µg/mL, partner 20 µg/mL	0.0563
S. pneumoniae D39V, first compound 0.75 µg/mL, partner 40 µg/mL	0.0762
S. pneumoniae D39V, first compound 0.75 µg/mL, partner 80 µg/mL	0.0821
S. pneumoniae D39V, first compound 1.5 µg/mL, partner 20 µg/mL	0.04
S. pneumoniae D39V, first compound 1.5 µg/mL, partner 40 µg/mL	0.0491
S. pneumoniae D39V, first compound 1.5 µg/mL, partner 80 µg/mL	0.0392

S. pneumoniae D39V, partner 68.57 µg/mL, one replicate
Settings	fitness
first compound 0.012 µg/mL	0.908
first compound 0.024 µg/mL	0.92
first compound 0.048 µg/mL	0.8

Cc1ncc([N+](=O)[O-])n1CCO [Metronidazole] + CC1(C)S[C@@H]2[C@H](NC(=O)Cc3ccccc3)C(=O)N2[C@H]1C(=O)O [Penicillin G]
fitness, S. aureus Newman
Settings	first compound 0.625 µg/mL	first compound 0.781 µg/mL	first compound 1.25 µg/mL	first compound 1.562 µg/mL	first compound 2.5 µg/mL	first compound 3.124 µg/mL
partner 0.0195 µg/mL	0.924	0.836	0.799	0.85	0.826	0.829
partner 0.039 µg/mL	0.9	0.975	0.882	0.932	0.913	0.947
partner 0.078 µg/mL	0.812	0.982	0.858	0.959	0.807	0.946

C[C@H]1c2cccc(O)c2C(=O)C2=C(O)[C@]3(O)C(=O)C(C(N)=O)=C(O)[C@@H](N(C)C)[C@@H]3[C@@H](O)[C@@H]21 [Doxycycline] + CC1=C(C(=O)O)N2C(=O)[C@@H](NC(=O)[C@H](N)c3ccccc3)[C@H]2SC1 [Cephalexin]
Settings	fitness
B. subtilis 168, first compound 0.02 µg/mL, partner 0.125 µg/mL	0.834
B. subtilis 168, first compound 0.02 µg/mL, partner 0.25 µg/mL	0.871
B. subtilis 168, first compound 0.02 µg/mL, partner 0.5 µg/mL	0.907
B. subtilis 168, first compound 0.04 µg/mL, partner 0.125 µg/mL	0.702
B. subtilis 168, first compound 0.04 µg/mL, partner 0.25 µg/mL	0.771
B. subtilis 168, first compound 0.04 µg/mL, partner 0.5 µg/mL	0.711
B. subtilis 168, first compound 0.08 µg/mL, partner 0.125 µg/mL	0.413
B. subtilis 168, first compound 0.08 µg/mL, partner 0.25 µg/mL	0.375
S. pneumoniae D39V, first compound 0.0155 µg/mL, partner 1 µg/mL	0.873
S. pneumoniae D39V, first compound 0.0155 µg/mL, partner 2 µg/mL	0.474
S. pneumoniae D39V, first compound 0.0155 µg/mL, partner 4 µg/mL	0.0211

fitness, one replicate
Settings	partner 0.125 µg/mL	partner 0.25 µg/mL	partner 0.5 µg/mL	partner 1 µg/mL	partner 2 µg/mL	partner 4 µg/mL
B. subtilis 168, first compound 0.02 µg/mL	–	–	–	≥ 1	–	–
B. subtilis 168, first compound 0.04 µg/mL	–	–	–	0.84	–	–
B. subtilis 168, first compound 0.08 µg/mL	–	–	–	0.793	–	–
S. pneumoniae D39V, first compound 0.003875 µg/mL	–	–	–	0.601	0.0976	0.0088
S. pneumoniae D39V, first compound 0.00775 µg/mL	–	–	–	0.722	0.186	0.0118
S. pneumoniae D39V, first compound 0.0155 µg/mL	0.902	0.867	0.879	–	–	–
S. pneumoniae D39V, first compound 0.031 µg/mL	0.916	0.885	0.887	0.756	0.634	0.0444
S. pneumoniae D39V, first compound 0.062 µg/mL	0.807	0.808	0.809	0.667	0.51	0.0551

COc1cccc2c1C(=O)c1c(O)c3c(c(O)c1C2=O)C[C@@](O)(C(=O)CO)C[C@@H]3O[C@H]1C[C@H](N)[C@H](O)[C@H](C)O1 [Doxorubicin] + CC1(C)S[C@@H]2[C@H](NC(=O)Cc3ccccc3)C(=O)N2[C@H]1C(=O)O [Penicillin G]
fitness, S. aureus Newman
Settings	first compound 0.625 µg/mL	first compound 1.25 µg/mL	first compound 2.5 µg/mL
partner 0.0195 µg/mL	0.705	0.711	0.698
partner 0.039 µg/mL	0.727	0.718	0.734
partner 0.078 µg/mL	0.752	0.72	0.692
